From patent US20240189373A1, “BACTERIOPHAGE COMPOSITIONS FOR TREATING STAP[…]” (priority 2020, published 2024) come the findings set out here.

This experiment deals with S. aureus strains. Description: microbe, parasite or virus in culture. The format is cell-based. The method, then: Grey boxes indicate lines on graph depicted in FIG. 5B. […] Vancomycin, 16 μg/mL; AP-SA02, 0.1 pg/mL.
FIG. 6A is data showing bacterial growth measured by turbidity (absorbance at 600 nm) in the presence of AP-SA02 and vancomycin in a checkerboard assay. Grey boxes show lines on graph depicted in FIG. 6B. […] Vancomycin, 2 μg/mL.
Standard therapy for subjects with a S. aureus infection includes vancomycin and daptomycin. Since subjects who receive AP-SA02 are likely to be on these therapies, the effect of AP-SA02 on these antibiotics and vice versa was assessed. Using the standard checkerboard assay, the minimum inhibitory concentration of each antimicrobial alone or in combination with each other, was used to calculate whether two antimicrobials are synergistic, antagonistic, or indifferent (Table 3).

For `CN[C@H](CC(C)C)C(=O)N[C@H]1C(=O)N[C@@H](CC(N)=O)C(=O)N[C@H]2C(=O)N[C@H]3C(=O)N[C@H](C(=O)N[C@H](C(=O)O)c4cc(O)cc(O)c4-c4cc3ccc4O)[C@H](O)c3ccc(c(Cl)c3)Oc3cc2cc(c3O[C@@H]2O[C@H](CO)[C@@H](O)[C@H](O)[C@H]2O[C@H]2C[C@](C)(N)[C@H](O)[C@H](C)O2)Oc2ccc(cc2Cl)[C@H]1O` [vancomycin], the MIC (Staphylococcus aureus) was more than 16 µg/mL. Also, the “breakpoint for vancomycin in the presence of phage” value (changed from resistant or intermediate to the sensitive range) fell in the range of 0.5 to 2 µg/mL.
